Data published in PMC10529594, “Strasseriolides display in vitro and in vivo activity against trypanosomal parasites and cause morphological and size defects in Trypanosoma cruzi” (PLOS Neglected Tropical Diseases, 2023).
“And” between values parts separate entries of the source, which are not always exact repeats. Equal values may be shown once.

Experiments:
[1] = system: T. cruzi Tulahuen C4 intracellular amastigotes; assay: β-D-galactosidase transgenic T. cruzi assay (intracellular amastigotes in L6 cells, CPRG); format: cell-based; details: Trypanosoma cruzi
Method: The Trypanosoma cruzi Tulahuen strain used is a genetically modified strain that expresses the Escherichia coli β-galactosidase gene, lacZ [31]. It was kindly supplied by Marcel Kaiser (Swiss Tropical and Public Health Institute). The T. cruzi Tulahuen C4 strain was cultured in RPMI-1640 supplemented with 10% inactivated FBS (iFBS), 1.7 mM L-glutamine, 100 U/mL penicillin, and […] at 37°C and 5% CO2. L6 rat skeletal muscle cells were purchased from ATCC (reference CRL-1458) and used as host cells for infection with transgenic T. cruzi trypomastigotes. Epimastigotes were obtained by differentiation in LIT medium with 10% iFBS at 28°C from trypomastigote forms.
A Thermo Scientific Multidrop Combi dispenser was used to dispense 55 μL of T. cruzi infected L6 cells (2 ×10^3 cells per well) into 384-well Corning assay plates already containing 5 μL of each compound at concentrations ranging from 0.0015 to 50 μM and controls. The plates were incubated at 37°C for 96 hours upon which 15 μL of lysis buffer (0.5 mM CPRG, 0.5% NP40) were added to each well and further incubated for 4 hours in the dark. Absorbance at 585 nm was measured in a Perkin Elmer Envision plate reader.

T. cruzi epimastigotes = assay: Microscopy analysis of T. cruzi epimastigotes (DAPI cell cycle, DIC morphology); format: cell-based, Trypanosoma cruzi; details: for % Cells 0N1K, Average / % Cells 1N1K1F, Average / % Cells 1N*1K*1F, Average / % Cells 1N*2K2F, Average / % Cells 2N1K, Average / % Cells 2N2K2F, Average / % Cells Other, Average / % Cells 0N1K, individual replicates / % Cells 1N1K1F, individual replicates / % Cells 1N*1K*1F, individual replicates / % Cells 1N*2K2F, individual replicates / % Cells 2N1K, individual replicates / % Cells 2N2K2F, individual replicates / % Cells Other, individual replicates: 72-hour drug exposure, DAPI staining
Method: For morphological phenotypic analysis and further confirmation of cell cycle analysis by FACS, T. cruzi epimastigotes were grown for 72 hours in a 6-well plate in the presence and absence of drugs. Briefly, 1 × 10^6 parasites of each condition were harvested and fixed in 4% p-formaldehyde at 4°C for 20 minutes, washed twice with cold PBS, and placed on poly-L-lysine-coated slides. Followed by dehydration in methanol, parasite samples were stained and mounted with DAPI Prolong. Digital images were acquired with a Leica DMi8 microscope in Tile Scan mode with […] excitation to quantify DAPI stained nuclei and kinetoplasts of the parasite population. Transmitted light microscopy was used to acquire differential interference contrast (DIC) images (> 80 individual cells in each of two independent experiments).

[2] = set-up: method as in PMID 34865639; details: cited from earlier work

C/C1=C\[C@H](C)C(=O)C[C@@H](O)/C(C)=C/[C@H](C)C[C@@H](C)CC[C@@H]([C@@H](C)C(=O)O)OC(=O)[C@@H](C)C1 [Strasseriolide C, strasseriolide C]
inhibition at 0.00305176 µM ([1]; TULAHUEN, L6, T. cruzi amastigotes, 96-hour treatment, 0.00305176 µM, read-out: Growth inhibition (%) Average): 3.11%
inhibition at 0.00610352 µM ([1]; TULAHUEN, L6, T. cruzi amastigotes, 96-hour treatment, 0.00610352 µM, read-out: Growth inhibition (%) Average): 4.62%
inhibition at 0.012207 µM ([1]; TULAHUEN, L6, T. cruzi amastigotes, 96-hour treatment, 0.012207 µM, read-out: Growth inhibition (%) Average): 9.25%
inhibition at 0.0244141 µM ([1]; TULAHUEN, L6, T. cruzi amastigotes, 96-hour treatment, 0.0244141 µM, read-out: Growth inhibition (%) Average): 4.92%
inhibition at 0.0488281 µM ([1]; TULAHUEN, L6, T. cruzi amastigotes, 96-hour treatment, 0.0488281 µM, read-out: Growth inhibition (%) Average): 5.95%
inhibition at 0.0976562 µM ([1]; TULAHUEN, L6, T. cruzi amastigotes, 96-hour treatment, 0.0976562 µM, read-out: Growth inhibition (%) Average): 2.24%
inhibition at 0.195312 µM ([1]; TULAHUEN, L6, T. cruzi amastigotes, 96-hour treatment, 0.195312 µM, read-out: Growth inhibition (%) Average): 5.83%
inhibition at 0.390625 µM ([1]; TULAHUEN, L6, T. cruzi amastigotes, 96-hour treatment, 0.390625 µM, read-out: Growth inhibition (%) Average): 4.94%
inhibition at 0.78125 µM ([1]; TULAHUEN, L6, T. cruzi amastigotes, 96-hour treatment, 0.78125 µM, read-out: Growth inhibition (%) Average): 4.24%
inhibition at 1.5625 µM ([1]; TULAHUEN, L6, T. cruzi amastigotes, 96-hour treatment, 1.5625 µM, read-out: Growth inhibition (%) Average): 15.3%
inhibition at 3.125 µM ([1]; TULAHUEN, L6, T. cruzi amastigotes, 96-hour treatment, 3.125 µM, read-out: Growth inhibition (%) Average): 61.8%
inhibition at 6.25 µM ([1]; TULAHUEN, L6, T. cruzi amastigotes, 96-hour treatment, 6.25 µM, read-out: Growth inhibition (%) Average): 96%
inhibition at 12.5 µM ([1]; TULAHUEN, L6, T. cruzi amastigotes, 96-hour treatment, 12.5 µM, read-out: Growth inhibition (%) Average): 110%
inhibition at 25 µM ([1]; TULAHUEN, L6, T. cruzi amastigotes, 96-hour treatment, 25 µM, read-out: Growth inhibition (%) Average): 112%
inhibition at 50 µM ([1]; TULAHUEN, L6, T. cruzi amastigotes, 96-hour treatment, 50 µM, read-out: Growth inhibition (%) Average): 115%
EC50 ([1]; Tulahuen C4 in L6 cells, 96 h, CPRG): 3.08 µM
% Cells 0N1K, Average (T. cruzi epimastigotes; EC30, average): 0.9709%
% Cells 1N1K1F, Average (T. cruzi epimastigotes; EC30, average): 66.0194%
% Cells 1N*1K*1F, Average (T. cruzi epimastigotes; EC30, average): 4.854%
% Cells 1N*2K2F, Average (T. cruzi epimastigotes; EC30, average): 2.913%
% Cells 2N1K, Average (T. cruzi epimastigotes; EC30, average): 4.854%
% Cells 2N2K2F, Average (T. cruzi epimastigotes; EC30, average): 19.4175%
% Cells Other, Average (T. cruzi epimastigotes; EC30, average): 0.9709%
% Cells 0N1K, individual replicates (T. cruzi epimastigotes; EC30, single replicates): 0.9709%
% Cells 1N1K1F, individual replicates (T. cruzi epimastigotes; EC30, single replicates): 70.8738% and 61.165%
% Cells 1N*1K*1F, individual replicates (T. cruzi epimastigotes; EC30, single replicates): 4.854%
% Cells 1N*2K2F, individual replicates (T. cruzi epimastigotes; EC30, single replicates): 2.913%
% Cells 2N1K, individual replicates (T. cruzi epimastigotes; EC30, single replicates): 6.796% and 2.913%
% Cells 2N2K2F, individual replicates (T. cruzi epimastigotes; EC30, single replicates): 13.5922% and 25.2427%
% Cells Other, individual replicates (T. cruzi epimastigotes; EC30, single replicates): 0% and 1.942%
% Cells 0N1K, Average (T. cruzi epimastigotes; EC70, average): 3.4269%
% Cells 1N1K1F, Average (T. cruzi epimastigotes; EC70, average): 57.8968%
% Cells 1N*1K*1F, Average (T. cruzi epimastigotes; EC70, average): 5.388%
% Cells 1N*2K2F, Average (T. cruzi epimastigotes; EC70, average): 3.4269%
% Cells 2N1K, Average (T. cruzi epimastigotes; EC70, average): 2.951%
% Cells 2N2K2F, Average (T. cruzi epimastigotes; EC70, average): 24.9207%
% Cells Other, Average (T. cruzi epimastigotes; EC70, average): 2.961%
% Cells 0N1K, individual replicates (T. cruzi epimastigotes; EC70, single replicates): 2.9703% and 3.8835%
% Cells 1N1K1F, individual replicates (T. cruzi epimastigotes; EC70, single replicates): 63.3663% and 52.4272%
% Cells 1N*1K*1F, individual replicates (T. cruzi epimastigotes; EC70, single replicates): 4.9505% and 5.825%
% Cells 1N*2K2F, individual replicates (T. cruzi epimastigotes; EC70, single replicates): 2.9703% and 3.8835%
% Cells 2N1K, individual replicates (T. cruzi epimastigotes; EC70, single replicates): 3.9604% and 1.942%
% Cells 2N2K2F, individual replicates (T. cruzi epimastigotes; EC70, single replicates): 16.8317% and 33.0097%
% Cells Other, individual replicates (T. cruzi epimastigotes; EC70, single replicates): 4.9505% and 0.9709%
morphological changes (DIC microscopy) (T. cruzi epimastigotes; 72 h, at EC70): smaller and rounded parasites
liver microsome clearance [2]: medium
